Like-named read-outs stand apart in the source and are kept apart here. Marks after values point to notes of the source that are not given here.
Experiments:
uridine/cytidine kinase = experiment: Competition assay for substrates of uridine/cytidine kinase, crude extracts of T24 cells; format: biochemical, human
Procedure: 2 mM dithiothreitol (DTT) and 0.5 mM phenylmethylsulfanyl fluoride were added just before extraction. The tissue sample was homogenized in a Dounce glass homogenizer and then sonicated for 3 five-second pulses in a Branson Sonifier with a micro-tip at 25 KHz to disrupt the cells. During homogenization and sonication the extract was kept cold throughout the procedures. The tissue extract was then centrifuged at 14,000×g at 4° C. for 15 min., and the supernatant (the crude enzyme extract) was removed. The supernatant was sheared 20 times on ice utilizing a 1 cc syringe with a 27 G½ needle to reduce viscosity. […] 2 mM DTT and 340 μM H4U were added just before the assay. Finally, to the reaction mixture, 5 μl 200 mM creatine phosphate and creatine phosphokinase (0.5 unit/μl) was added to 150 μl of the section mixture. […] H2O bath for 1 minute before 20 μl of the crude enzyme extract was added to initiate the reaction. […] At 0, 30 and 60 minutes the reaction mixture, divided in separate tubes, was heated in a boiling water bath for 2 minutes to terminate the reaction. Denatured protein was then removed by centrifugation of the sample for 2 minutes at 14,000×g. The amount of nucleotide formed was determined by spotting 20 μl aliquots of the reaction mixture onto DE-81 2.2 cm Whatman filter discs. After air drying, the unphosphorylated substrate nucleoside was removed by washing twice for 10 min. in 20 mM ammonium formate and twice for 5 min. in deionized H2O with gentle stirring. A control, lacking the crude enzyme extract was included with each determination. The washed papers were dried under a heat lamp and then placed into individual scintillation vials, eluted for 30 min. in 1 ml of 0.1M HCl-0.1M KCL and then vortexed in 5 ml of scintillation fluid and counted. Enzyme activity was expressed as pmoles/min/mg protein.
When uridine was utilized as substrate, benzacyclouridine was added to prevent the catabolism of the substrate by uridine phosphorylase and tetrahydrouridine was omitted.

PC-3 cells [1] = experiment: Radiosensitization of cells in culture (Cobalt 60, clonogenic survival); format: cell-based, human
Procedure: (§1) Toxicity and Radiation Studies: The methods using clonogenic assays described by Perez and Greer (Int. J. Rad. Oncology: Biology, Physics 12, 1523-1527, 1986—incorporated herein by reference in its entirety) were followed.
(§2) Irradiation of Cells in Culture: 2×10^5 cells were plated in 25 cm^2 flasks and grown for 18 hr at 37° C. in a humidified 5% CO2 atmosphere. The medium was then removed and replaced with medium containing the appropriate drug concentrations and incubated for 72 hrs then removed and the cell monolayers were rinsed twice with PBS. The flasks were then filled with 50 ml of radiation medium (3 parts RPMI 1640 and 7 parts PBS plus antibiotics and glutamine). The cells were then irradiated using a Cobalt 60 irradiator. The cell monolayers were placed 35 cm away from the source and irradiated for appropriate times according to the dose rate. The dose rate was calculated, at this distance, using ionization chambers. Attenuation factors due to the polystyrene flask (0.9923) and the medium (H2O=0.8715) were considered in calculating the exposure period.
(§3) After irradiation the cell monolayers were washed again, replenished with growth media, and incubated for 1½ hours. The cell monolayers were then trypsinized and the cells serially diluted, appropriate dilutions were then plated in 60 mm dishes and incubated for 7-9 days at 37° C. and CO2. At the end of this period the cells were stained with crystal violet and the colony forming ability determined by considering 25 or more normal cells as a viable colony. The viabilities were determined and the appropriate survival curves derived. All conditions were done in duplicate using two flasks treated under identical conditions.

T24 cells = experiment: as above; format: cell-based, human
Procedure: as §1, §2, §3

cytidine deaminase (CD) = target: T1, cytidine deaminase (CD) (Homo sapiens, UniProt P32320); experiment: Competition assay for substrates of cytidine deaminase, crude extracts of PC-3 cells; format: biochemical
T1 construct: Crude extracts of PC-3 cells in culture were prepared as described above; endogenous in cells; host or cells: PC-3 cells (crude extract supernatant)
T1 sequence (P32320 whole entry): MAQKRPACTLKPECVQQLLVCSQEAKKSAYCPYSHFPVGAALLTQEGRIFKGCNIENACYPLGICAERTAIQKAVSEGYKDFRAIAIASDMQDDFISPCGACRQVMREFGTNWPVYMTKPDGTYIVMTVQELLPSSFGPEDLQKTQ
Procedure: (§4) The crude enzyme extract (the supernatant of a 10 minute 14,000×g centrifugation) was then added. When cytidine was used as substrate, assays were conducted with benzacyclouridine to inhibit uridine phosphorylases. […] After 0, 15, and 30 minutes, the reaction was stopped and denatured protein removed as above for dC Kinase. […] Aliquots were then spotted on PE cellulose TLC sheets and the reactants separated with a solvent system composed of isopropanol:HCl:H2O (170:41:39). […] The nucleosides were visualized under U.V. light and the spots cut out and counted. […] Enzyme activity was expressed as nmole formed in 30 min/mg/protein.
Competition assays to determine Substrate Specificity: Crude extracts of PC-3 cells in culture were prepared as described above. Two concentrations of crude extract were utilized for the studies as determined from the analysis of protein.
The assays were run for 0, 15, and 30 minutes.

PC-3 cells [2] = experiment: Cytotoxicity (clonogenic) assay, 72 h drug exposure; format: cell-based, human
Procedure: as §1
Cytotoxicity Assays: 5×10^5 cells were plated in 60 mm tissue culture dishes in 5 mls of the optimal growth media for the particular cell line in an humidified 95% air-5% CO2 atmosphere. The plates were incubated for 18-20 hours to allow for attachment and log-phase growth to begin. At the end of this period the growth medium was aspirated and replaced with […]. Four times (4×) concentrated solutions were prepared and then 1 ml was added to the plates; and growth media were then added to a total volume of […]. The plates were then incubated for 72 hours and the cells harvested by trypsinization. The cells were then serially diluted in growth medium replated into 60 mm dishes and incubated for 6 to 9 days depending on the cell line. After this incubation period, the media was aspirated and the colonies were washed twice with a PBS solution. The colonies were then stained with a 0.2% crystal violet-20% ethanol solution for 5 min. the stain was removed, the colonies were washed and air dried. A viable colony was one consisting of 25 or more normal appearing cells and was considered to have arisen from a single cell. The colonies were counted under a dissecting microscope. Two to three dilutions for every condition were plated. Dishes containing 30-300 colonies were used in the calculation and all conditions were done in duplicate.

[3] = target: deoxycytidine kinase (dCK) (Homo sapiens, UniProt P27707); experiment: Competition assay for substrates of deoxycytidine kinase, crude extracts of PC-3 cells
Sequence of deoxycytidine kinase (dCK) (P27707 whole entry): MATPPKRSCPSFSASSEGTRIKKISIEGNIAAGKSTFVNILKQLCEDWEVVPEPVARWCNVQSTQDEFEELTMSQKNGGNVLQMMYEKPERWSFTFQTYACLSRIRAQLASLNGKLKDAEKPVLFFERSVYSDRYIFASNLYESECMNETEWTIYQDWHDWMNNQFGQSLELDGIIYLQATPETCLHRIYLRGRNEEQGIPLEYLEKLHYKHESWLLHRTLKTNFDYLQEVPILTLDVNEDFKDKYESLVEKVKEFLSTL

dCMP deaminase = target: T2, dCMP deaminase (Mus musculus, UniProt Q8K2D6); experiment: Inhibition of dCMP deaminase after H4U in mice bearing Lewis lung carcinoma; format: in vivo, BD2F1 mice; settings: for % of inhibition of dCMP deaminase of tumor: 30 min
T2 construct: deaminase activity of tumor, serum and other tissues assayed 30 min after H4U; from tissue; host or cells: tumor (Lewis lung carcinoma), serum and other tissues of BD2F1 mice
T2 sequence (Q8K2D6 1-178): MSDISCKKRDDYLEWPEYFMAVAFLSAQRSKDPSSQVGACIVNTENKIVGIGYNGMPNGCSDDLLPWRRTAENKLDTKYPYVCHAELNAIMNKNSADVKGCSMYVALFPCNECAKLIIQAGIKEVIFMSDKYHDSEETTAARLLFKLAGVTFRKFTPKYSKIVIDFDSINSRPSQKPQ
Procedure: dCMP Deaminase Activity: The crude enzyme extract was prepared as described in A. The reaction was carried out in 60 mM Tris HCl, pH 8.0, and 50 μm dCTP, 2.5 mM MgCl2, 30 mM NaF, and 80% H2O to which dCMP (^3H labeled) was added to a final concentration of 2 mM; 20 μl of enzyme extract was added to initiate the reaction giving a total volume of […]. […] A control lacking enzyme was included with each determination. The reaction was terminated as described above in at 0, 30 and 45 minutes and denatured protein was removed by centrifugation as described above. To 10 μl of the supernatant, 6 μl of a 0.03M solution of the carrier nucleotides, dCMP and dUMP were added so that the reactants can be visualized under a UV lamp. Chromatographic isolation of the products was carried out in 2 different solvent systems: A) Baker DEAE Cellulose TLC sheets in 0.01N HCl for 35 min. […] Each appropriate area of the thin layer sheets (where dCMP and dUMP were separated), were cut into small pieces and placed in separate vials and extracted with 1N HCl (1 ml) for 30 minutes. Scintillation cocktail was added (5 ml) to the vials which were vortexed prior to counting. The specific activity was expressed as nmoles/min/mg protein.

cytidine deaminase = target: T3, cytidine deaminase (Mus musculus, UniProt P56389); experiment: Inhibition of tissue cytidine deaminase in mice bearing mammary adenocarcinoma-755 (FIG. 6); format: in vivo, BD2F1 mice; settings: H4U 25 mg/kg or deoxytetrahydrouridine 100 mg/kg i.p.; 60 min
T3 construct: from tissue; host or cells: Lewis lung carcinoma, liver, spleen, intestine, bone marrow, kidney, skeletal muscle and serum of BD2F1 mice
T3 sequence (P56389 whole entry): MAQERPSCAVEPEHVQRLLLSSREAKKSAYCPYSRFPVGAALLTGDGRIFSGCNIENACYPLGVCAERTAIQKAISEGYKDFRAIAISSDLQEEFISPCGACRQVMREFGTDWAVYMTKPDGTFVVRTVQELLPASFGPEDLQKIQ
Procedure: as §4

Lewis lung carcinoma = experiment: Mean day of death (T/C), Lewis lung carcinoma in mice; format: in vivo, BD2F1 mice
Procedure: ; The efficacy of the drug, F3methyldC followed the pattern of Selectivity. The mean day of death (Tumor/Control) was 1.3, 1.6, 1.8 and 1.4 for 10, 25, 50 and 75 mg/kg H4U, respectively. […].

[4] = competition studies, human tumor cell extracts

## O=c1[nH]c(=O)n([C@@H]2O[C@H](CO)[C@@H](O)[C@H]2O)cc1Cl [5-Chlorouridine]
uridine/cytidine kinase
  substrate for U/C kinase of T24 cells (in words): moderate substrates
uridine/cytidine kinase; competitor 100 μM, substrate 3H-Cytidine 8.3 μM
  % Inhibitation (U/C kinase): 8%
uridine/cytidine kinase; competitor 100 μM, substrate 3H-Uridine 16.7 μM
  % Inhibitation (U/C kinase): 11%
uridine/cytidine kinase; competitor 250 μM, substrate 3H-Cytidine 8.3 μM
  % Inhibitation (U/C kinase): 21%
uridine/cytidine kinase; competitor 250 μM, substrate 3H-Uridine 16.7 μM
  % Inhibitation (U/C kinase): 22%
uridine/cytidine kinase; competitor 500 μM, substrate 3H-Cytidine 8.3 μM
  % Inhibitation (U/C kinase): 32%
uridine/cytidine kinase; competitor 500 μM, substrate 3H-Uridine 16.7 μM
  % Inhibitation (U/C kinase): 24%
uridine/cytidine kinase; competitor 750 μM, substrate 3H-Cytidine 8.3 μM
  % Inhibitation (U/C kinase): 39%
uridine/cytidine kinase; competitor 750 μM, substrate 3H-Uridine 16.7 μM
  % Inhibitation (U/C kinase): 32%
PC-3 cells [1]; PC-3 cells
  radiosensitization of PC-3 cells (in words): effective radiosensitizer
T24 cells
  radiosensitization of T24 cells (in words): effective radiosensitizer
T24 cells; listed as Chlorouridine
  radiosensitization of T24 cells (in words): compared very favorably with the other established Radiosensitizers

## Nc1nc(=O)n([C@H]2C[C@H](O)[C@@H](CO)O2)cc1I [5-IdC, 5-Iodo-2′-deoxycytidine]
Cytidine deaminase (CD); [4]
  substrate for cytidine deaminase (in words): good substrates
Cytidine deaminase (CD); competitor 250 μM, substrate 3H-Deoxycytidine 25 μM, ratio 10, PC-3 extracts
  inhibition at 250 µM: 60%
PC-3 cells [2]
  effect of tetrahydrouridine (H4U) on cytotoxicity / viability (in words): antagonized by Tetrahydrouridine
  effect of thymidine on cytotoxicity (in words): antagonized by thymidine
PC-3 cells [2]; human, 72 h
  effect of tetrahydrouridine (H4U) on cytotoxicity / viability (in words): reversal by H4U
PC-3 cells [2]; nucleoside 5 μM, H4U 0 μM
  % S: 15%
PC-3 cells [2]; nucleoside 5 μM, H4U 5 μM
  % S: 100%
PC-3 cells [2]; nucleoside 5 μM, H4U 100 μM
  % S: 97%
PC-3 cells [2]; nucleoside 5 μM, H4U 1500 μM
  % S: 100%
PC-3 cells [2]; nucleoside 10 μM, H4U 5 μM
  % S: 53%
PC-3 cells [2]; nucleoside 10 μM, H4U 100 μM
  % S: 73%
PC-3 cells [2]; nucleoside 10 μM, H4U 1500 μM
  % S: 89%
PC-3 cells [2]; nucleoside 20 μM, H4U 5 μM
  % S: 30%
PC-3 cells [2]; nucleoside 20 μM, H4U 100 μM
  % S: 65%
PC-3 cells [2]; nucleoside 20 μM, H4U 1500 μM
  % S: 61%
PC-3 cells [1]; cells in culture
  effect of thymidine on radiosensitization (in words): antagonized by thymidine
PC-3 cells [1]; cells in culture, listed as 5-Iododeoxycytidine
  effect of tetrahydrouridine (H4U) on radiosensitization (in words): reversal by H4U
PC-3 cells [1]; cells in culture, listed as IdC
  effect of tetrahydrouridine (H4U) on radiosensitization (in words): greater radiosensitization than IdC alone
[3]; [4]
  substrate for deoxycytidine kinase (in words): very poor substrates
[3]; read-out: % Inhibition (dCK)
  inhibition at 250 µM: 0%

## O=C1NC(O)CCN1[C@H]1C[C@H](O)[C@@H](CO)O1 (stereo partly drawn) [Deoxytetrahydrouridine]
dCMP deaminase; mouse, in vivo
  selective inhibition of dCMP deaminase of normal tissue (in words): not selectively inhibited
Cytidine deaminase
  selectivity of inhibition: tumor CD vs CD of normal tissues (in words): did not display a selective inhibition

## O=C1NC(O)CCN1[C@@H]1O[C@H](CO)[C@@H](O)[C@H]1O (stereo partly drawn) [Tetrahydrouridine]
PC-3 cells [2]; no nucleoside, H4U 100 μM alone
  % S: 100%
dCMP deaminase; H4U 10 mg/kg, footnote: less than 5% enzyme inhibition
  % of inhibition of dCMP deaminase of tumor: 0^d %
dCMP deaminase; H4U 25 mg/kg
  % of inhibition of dCMP deaminase of tumor: 0%
dCMP deaminase; H4U 50 mg/kg
  % of inhibition of dCMP deaminase of tumor: 0%
dCMP deaminase; H4U 75 mg/kg
  % of inhibition of dCMP deaminase of tumor: 0%
Lewis lung carcinoma; H4U 10 mg/kg with F3methyldC
  MDD T/C (mean day of death): 1.25
Lewis lung carcinoma; H4U 25 mg/kg with F3methyldC, mean ± SE
  MDD T/C (mean day of death): 1.63 ± 0.07^e
Lewis lung carcinoma; H4U 50 mg/kg with F3methyldC, mean ± SE
  MDD T/C (mean day of death): 1.78 ± 0.06
Lewis lung carcinoma; H4U 75 mg/kg with F3methyldC
  MDD T/C (mean day of death): 1.44
uridine/cytidine kinase; competitor 1500 μM, substrate 3H-Cytidine 8.3 μM
  % Inhibitation (U/C kinase): 1.5%
uridine/cytidine kinase; competitor 1500 μM, substrate 3H-Uridine 16.7 μM
  % Inhibitation (U/C kinase): 1.7%

From patent publication US8252768B2, “Designer therapy of pancreatic tumors” (University of Miami, priority 2006, dated 2012)
